Test results taken from patent US7160684B2, “Methods of selecting compounds for modulation of bladder function” (Wyeth, priority 2000, dated 2007).

Columns and labels:
[1] = tested on: isolated rat bladder strips; experiment: Isolated rat bladder strip contraction; settings: strips precontracted with 20 mM KCl; for antagonism of the effects of retigabine on bladder strip contractions: 10 μM antagonist
Protocol: Male Sprague-Dawley rats (200–400 grams) are euthanized by CO2 inhalation and exsanguination. Their urinary bladders are rapidly removed and placed in […] physiological salt solution (PSS) that contained the following (mM): NaCl (118.4), KCl (5), CaCl2 (2.5), MgSO4 (1.2), KH2PO4 (1.2), NaHCO3 (24.9) and D-glucose (11.1) gassed with O2/CO2 (95% /5%) to achieve a pH of 7.4. The dome of the bladder is isolated from the trigon region and this tissue is then cut into 4–5 mm wide by 10 mm long strips. One end is secured to the bottom of a water jacketed tissue bath and the other to a GRASS isometric force transducer (Grass Instruments, Quincy, Mass.). Tissues are pretensioned (0.25 to 0.5 grams), and after 30 minutes of equilibration are contracted with an additional 15 mM KCl (total of 20 mM) and again allowed to equilibrate until the preparations are contracting steadily. Any of a variety of compounds are administered directly into the tissue baths as sequential concentrations. Transducer signals are digitized (12 bit resolution) and analyzed on-line using a 586-based computer and custom software. The area under the contraction curve (AUC) is used as a measure of contractility since the spontaneous bladder contractions are irregular in amplitude and frequency. A 5-minute AUC value is taken 30 minutes after administration of each compound concentration to the tissue bath.
We isolated rat bladder strips from male Sprague-Dawley rats as previously described, (Wojdan, A., Freeden, C., Woods, M., Oshiro, G., Spinelli, W. et al., J Pharmacol Exp Therap 289: 1410–1418 (1999)) and precontracted them with 20 mM KCl. The KCNQ channel agonist retigabine, was added to the tissue bath in increasing concentrations, and area under the contraction curve was analyzed.
In another study, isolated rat bladder strips were precontracted with 60 mM KCl (FIG. 1).
The difference in IC50s between 20 and 60 mM KCl depolarizations are consistent with a potassium channel opening mechanism.
Rat bladder strips were isolated and prepared as previously described (Wojdan, A., Freeden, C., Woods, M., Oshiro, G., Spinelli, W. et al., J Pharmacol ExpTherap 289:1410–1418 (1999)). Preparations were contracted with either 20 or 60 mM KCl, or 200 nM carbachol. A five minute area under the contraction curve was acquired 20 minutes after addition of each concentration of retigabine using a 12 bit D/A and a 586 based personal computer running custom software. Message for KCNQ subunits was probed using quantitative rtPCR on an ABI PRISM 7700 Sequence Detection System (TAQMAN). Forward and reverse primers and TAQMAN probes were designed using published RNA sequences for human KCNQ1–5 and rat KCNQ 1–4 listed within the NCBI data base. Since no rat sequence for KCNQ5 were currently published, probes and primers were designed by BLAST analysis of rat Expressed Sequence Tags (EST) using the known mouse KNCQ5 sequence. From homologous EST sequences, a contiguous sequence of 384 base pairs was constructed. Probes and primers were designed against this sequence. BLAST analysis of our rat KCNQ5 probes and primer were selective for mouse and human KCNQ5 sequences. PCR products were confirmed by gel electrophoresis (data not shown). Cells for electrophysiology were prepared from rat bladder smooth muscle as previously described (Wojdan et al., 1999). Human bladder smooth muscle cells were obtained from Clonetics, San Diego, Calif. […]

[2] = tested on: isolated rat bladder smooth muscle cell; experiment: Voltage clamp recording of outward current, rat cells; type: cell-based
From the text: (§1) Rat detrusor cells are isolated in a manner previously described for guinea-pig detrusor (Sheldon J H, Norton N W and Argentieri T M (1997) Inhibition of guinea pig detrusor contraction by NS-1619 is associated with activation of BKCa and inhibition of calcium currents. J Pharmacol Exp Thera 283(3): 1193–1200). Male Sprague-Dawley rats (Charles River, Wilmington, Mass.; 200–400 grams) are euthanized by CO2 inhalation and exsanguination. Their urinary bladders are rapidly removed and placed in 37° C. physiological solution with the following composition (mM): Na glutamate (80.0), NaCl (54.7), KCl (5.0), NaHCO3 (25.0), MgCl2.2H2O (2.5), D-glucose (11.8) and CaCl2 (0.2) gassed with O2—CO2, 95%/5% for a final pH of 7.4. The dome of the bladder is isolated from the trigone region and the mucosa is removed. This tissue is then cut into 2–3 mm wide strips and placed into fresh buffer for 1 hour. Tissues are then transferred into 10 ml of an isolation buffer containing the above composition plus collagenase type VIII (1.0 mg/ml) and pronase (0.25 mg/ml). After 10 minutes the isolation buffer is replaced with fresh isolation buffer for an additional 10 min. The tissue is then washed 3 times in fresh collagenase and pronase free solution and stored at room temperature until studied. Cells for study are prepared by triturating 1–2 pieces of detrusor tissue in 2 ml of fresh isolation buffer for 5 minutes with a polished Pasteur pipette, (tip diameter ˜1.5 mm) attached to a modified Harvard Respirator pump (Harvard Apparatus, Southnatic, Mass.) at a rate of 20×/min. with an approximate volume of 5 ml. Cells are then placed on a microscope stage in a temperature regulated tissue bath at 32.5° C. and continually superfused with PSS.
(§2) Single cell recordings are performed with a List-Medical EPC-7 patch clamp amplifier (Adams & List Assoc., Westbury, N.Y.). Pipette electrodes had tip resistances of 2–4 MΩ and are filled with the following composition (mM): KCl (126.0), MgCl2.6H2O (4.5), ATP Mg salt (4.0), GTP tris salt (0.3), creatine PO4 (14.0), D-glucose (9.0), EGTA (9.0), HEPES (9.0). The pH is adjusted to 7.4 with KOH. Signals are acquired (3 kHz high frequency cut-off, 12 bit resolution) using a 586-based personal computer.
Whole cell recordings are made using broken patch access. Currents are evoked using either voltage steps (Vh=−50; Vt=−60 to 40 mV) or voltage ramps (−60 to 40 mV at 3.3 mV/sec.). The exact voltage clamp protocols are well known in the art. After stability is achieved control currents are recorded. Next, test compound is added to the superfusate. Currents are recorded for 5 to 10 minutes or until compound effects reach steady state. This is followed either by washout or addition of antagonists (linopirdine, XE-991) to the superfusate. […]

[3] = tested on: isolated rat bladder smooth muscle cell; experiment: Current clamp recording of resting membrane potential, rat cells; type: cell-based
From the text: as §1, §2
Cell resting membrane potential (RMP) is measured in current clamp using the above mentioned instrumentation and pipette solutions. For these experiments nystatin is also added to the pipette solution (100 μg/ml) to allow recording through utilization of the perforated patch technique (Korn, et al, 1991). […] After this time, various antagonists (linopirdine, XE-991) are added to the perfusate and RMP is recorded for an additional 5 minutes. […]

[4] = tested on: cultured human bladder smooth muscle cells; experiment: Voltage clamp recording of outward current, human cells; type: cell-based; settings: XE-991 (10 μM in FIG. 3d)
Protocol: as §2
Whole cell recordings are made using broken patch access. Currents are evoked using either voltage steps (Vh=−50; Vt=−60 to 40 mV) or voltage ramps (−60 to 40 mV at 3.3 mV/sec.). The exact voltage clamp protocols are well known in the art. After stability is achieved control currents are recorded. Next, test compound is added to the superfusate. Currents are recorded for 5 to 10 minutes or until compound effects reach steady state. This is followed either by washout or addition of antagonists (linopirdine, XE-991) to the superfusate.
Cellular electrophysiological studies were conducted using both voltage and current clamp techniques (Hammill, O., P., Marty, A., Neher, E., Sakmann, B. & Sigworth, F. J.: Improved patch-clamp techniques for high-resolution current recordings from cells and cell-free membrane patches. Pflugers Arch 391: 85–100 (1981)) from Sprague-Dawley rat (200–400 grams) bladders as previously described, (Wojdan, A., Freeden, C., Woods, M., Oshiro, G., Spinelli, W. et al., J. Pharmacol Exp Therap 289: 1410–1418 (1999)) and from a human bladder, primary cell culture (Colnetics, San Diego, Calif.). In rat cells, the average, control resting membrane potential (RMP) was −29.0±4.5 mV. […]
Rat bladder strips were isolated and prepared as previously described (Wojdan, A., Freeden, C., Woods, M., Oshiro, G., Spinelli, W. et al., J Pharmacol ExpTherap 289:1410–1418 (1999)). […] Message for KCNQ subunits was probed using quantitative rtPCR on an ABI PRISM 7700 Sequence Detection System (TAQMAN). […]

O=C1N(c2ccccc2)c2ccccc2C1(Cc1ccncc1)Cc1ccncc1 [linopirdine]
antagonism of the effects of retigabine on bladder strip contractions [1]: 94.8±17.5%
reversal of retigabine-induced increase in outward current ([2]; linopirdine 50 μM): partially reversed

O=C1c2ccccc2C(Cc2ccncc2)(Cc2ccncc2)c2ccccc21 [XE-991, 10,10-bis(4-pyridinylmethyl)-9(10H)-anthracenone]
antagonism of the effects of retigabine on bladder strip contractions [1]: 94.8±17.5%
reversal of retigabine-induced increase in outward current ([2]; XE-991 10 μM): partially reversed
reversal of retigabine-induced hyperpolarization ([3]; 10 μM XE-991 after 10 μM retigabine): completely reversed
effect on membrane potential relative to initial RMP ([3]; 10 μM XE-991 after retigabine): depolarized the cell below its initial RMP
reversal of retigabine-induced changes (hyperpolarization, outward current) [4]: partially reversed

iberiotoxin (QFTDVDCSVSKECWSVCKDLFGVDRGKCMGKKCRCYQ; UniProt P24663 1-37, looked up)
sensitivity of retigabine-induced increase in outward current to blocker ([2]; 100 nM iberiotoxin): not sensitive

COc1ccc(Cl)cc1C(=O)NCCc1ccc(S(=O)(=O)NC(=O)NC2CCCCC2)cc1 [glyburide]
reversal of the effects of retigabine on bladder strip contractions ([1]; glyburide 10 μM): not reversed
